Like-named read-outs stand apart in the source and are kept apart here.

The record followed here is patent publication US20260176270A1 (Exelixis, Inc., priority 2022, published 2026).

Assay [1] concerns phosphorylation of CDK1 at Thr14 in HCC1806 cells. Briefly: Cell lysate AlphaLISA assay measuring inhibition of phosphorylation of CDK1 Thr14. The assay is classed as cell-based. The settings on record: read-out: Cellular IC50. In outline:
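HCC1806 cells seeded overnight, then treated 4 h at 37 °C, 5% CO2 with compounds in DMSO; washed and lysed, lysates frozen overnight at −80 °C. CDK1 Thr14 phosphorylation read by AlphaLISA SureFire Ultra; data normalized to DMSO (0% inhibition) and 3 μM reference compound to give IC50.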
For orientation: Bead proximity is the source of the signal in Alpha formats.

The target of assay [2] is T1, PKMYT1 (Homo sapiens, UniProt Q99640).
T1 construct: PKMYT1 (93 kD, full length, N-terminal GST tag from Signal Chem); GST (N); purchased Signal Chem
T1 sequence (Q99640 1-499): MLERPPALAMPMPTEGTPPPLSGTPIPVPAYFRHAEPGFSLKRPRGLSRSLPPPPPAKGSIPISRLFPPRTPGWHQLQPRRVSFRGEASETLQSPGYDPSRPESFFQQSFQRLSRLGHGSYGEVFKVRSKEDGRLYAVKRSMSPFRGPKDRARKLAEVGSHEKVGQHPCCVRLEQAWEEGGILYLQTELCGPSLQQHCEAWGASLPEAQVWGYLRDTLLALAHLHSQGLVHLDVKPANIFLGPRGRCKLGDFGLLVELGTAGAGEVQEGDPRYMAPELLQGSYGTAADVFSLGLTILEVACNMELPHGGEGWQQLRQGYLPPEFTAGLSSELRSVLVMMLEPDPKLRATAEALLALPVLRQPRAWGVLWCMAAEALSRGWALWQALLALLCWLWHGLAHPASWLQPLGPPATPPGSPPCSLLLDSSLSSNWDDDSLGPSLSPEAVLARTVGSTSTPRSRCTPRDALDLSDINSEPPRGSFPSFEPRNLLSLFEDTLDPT
In words: ADP-Glo PKMYT1 ATP-depletion assay. To be noted: 50 nM PKMYT1, 13.3 nM CDK1, read-out: Biochemical IC50. An outline of the steps:
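Full-length N-terminal GST-tagged PKMYT1 (50 nM) with GST-CDK1 (13.3 nM) as substrate and 88 µM ATP, in Hepes buffer with MgCl2, MnCl2, DTT and BSA; DMSO <1%. Incubated 120 min at RT. ADP formed was quantified by ADP-Glo luminescence and used to derive biochemical IC50.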
On the technique in general: In ADP-Glo the light output rises with the ADP produced.

A word on the IC50: it is the midpoint of a concentration-inhibition curve. For `Cc1cnc2cc(C(N)=O)c(N)c(-c3cccc(O)c3C)c2n1` (atropisomer, axis not shown) [Compound 168], the IC50 is 50 to 500 nM in assay [1] (4 hours) and less than 50 nM in assay [2].
As to `Cc1ccc(O)c(C)c1-c1c(N)c(C(N)=O)nc2cccnc12` [Compound 3, 3-Amino-4-(3-hydroxy-2,6-dimethylphenyl)-1,5-naphthyridine-2-carboxamide], the IC50 in assay [1] (Homo sapiens, HCC1806, 4 h) is 50 to 500 nM; in assay [2], less than 50 nM.
On to `NC(=O)c1nc2cccnc2c(-c2cccc3occc23)c1N` [Compound 250], for which the IC50 in assay [1] (Homo sapiens, HCC1806, 4 h) was not below 5000 nM; in assay [2] it was not below 5000 nM.
Take `NC(=O)c1cc2nccnc2c(-c2ccc(F)c(O)c2)c1N` [Compound 200]: the IC50 in assay [1] (Homo sapiens, HCC1806, 4 h) was not below 5000 nM; in assay [2] it was 50 to 500 nM.
With `CCn1ccc2cc(C(N)=O)c(N)c(-c3cccc(O)c3C)c2c1=O` (atropisomer, axis not shown) [Compound 328], the concentration for half-maximal inhibition (IC50) in assay [1] (4 hours) and in assay [2] was not below 5000 nM throughout.
In the case of `Cc1cnc2c(-c3c(C)ccc(O)c3C)c(N)c(C(N)=O)cc2n1` [Compound 217], the figures for the IC50 in assay [1] (4 hours) and in assay [2] were 50 to 500 nM and less than 50 nM, respectively.
Consider `Cc1c(O)cccc1-c1c(N)c(C(N)=O)cc2nc(C(F)(F)F)cnc12` (atropisomer, axis not shown; (P)) [Compound 100, (P)-7-Amino-8-(3-hydroxy-2-methylphenyl)-3-(trifluoromethyl)quinoxaline-6-carboxamide], for which the IC50 in assay [1] (4 hours) and in assay [2] was 50 to 500 nM throughout.
Regarding `Cc1ccc(O)c(C)c1-c1cc(C(N)=O)cc2nccnc12` [Compound 74, 8-(3-Hydroxy-2,6-dimethyl-phenyl)quinoxaline-6-carboxamide], the IC50 in assay [1] (Homo sapiens, HCC1806, 4 h) is not below 5000 nM; in assay [2], 500 to 1000 nM.
In the case of `N#Cc1cccc2nc(C(N)=O)c(N)c(-c3cncnc3)c12` [Compound 236], the IC50 in assay [1] (Homo sapiens, HCC1806, 4 h) is not below 5000 nM; in assay [2] it was 1000 to 5000 nM.
As to `Cc1c(O)cccc1-c1cc(C(N)=O)nc2c(C)ccc(C)c12` [Compound 52, 4-(3-Hydroxy-2-methylphenyl)-5,8-dimethylquinoline-2-carboxamide], the IC50 was not below 5000 nM in assay [1] (Homo sapiens, HCC1806, 4 h) and not below 5000 nM in assay [2].
With `Cc1c(O)cncc1-c1c(N)c(C(N)=O)nc2c1NCCC2` [Compound 334], the IC50 in assay [1] (Homo sapiens, HCC1806, 4 h) was not below 5000 nM; in assay [2], 1000 to 5000 nM.
For `Cc1ccc(O)c(C)c1-c1c(N)c(C(N)=O)cc2nc(C)c(C)nc12` [Compound 94, 7-Amino-8-(3-hydroxy-2,6-dimethylphenyl)-2,3-dimethylquinoxaline-6-carboxamide] the same measures were 50 to 500 nM and less than 50 nM.
For `Cc1c(O)cccc1-c1c(N)c(C(N)=O)cc2nc(C(F)(F)F)c(O)nc12` [Compound 133], the values for the IC50 in assay [1] (4 hours) and in assay [2] were 1000 to 5000 nM and 50 to 500 nM, respectively.
For `Cc1c(O)cccc1-c1c(N)c(C(N)=O)nc2nccc(C#N)c12` [Compound 260], the half-maximal inhibitory concentration (IC50) in assay [1] (Homo sapiens, HCC1806, 4 h) is not below 5000 nM; in assay [2], not below 5000 nM.
On to `Cc1ccc(O)c(C)c1-c1c(N)c(C#N)cc2nccnc12` [Compound 298], for which the IC50 in assay [1] (Homo sapiens, HCC1806, 4 h) is not below 5000 nM; in assay [2], 1000 to 5000 nM.
On to `NC(=O)c1cc2nccnc2c(-c2ccnc3[nH]ncc23)c1N` [Compound 182], for which the 50% inhibitory concentration (IC50) is not below 5000 nM in assay [1] (Homo sapiens, HCC1806, 4 h) and 1000 to 5000 nM in assay [2].
For the compound `Cc1c(O)cccc1-c1c(N)c(C(N)=O)cc2c1ncc(=O)n2C` (atropisomer, axis not shown) [Compound 284], the IC50 in assay [1] (4 hours) was not below 5000 nM; in assay [2] it was 50 to 500 nM.
The like results for `Cc1ccc(O)c(C)c1-c1c(N)c(C(N)=O)nc2c(C(F)(F)F)cccc12` (single isomer, unassigned) [Compound 30, (M)-3-Amino-4-(3-hydroxy-2,6-dimethylphenyl)-8-(trifluoromethyl) quinoline-2-carboxamide] were, in that order, less than 50 nM and 50 to 500 nM.
As for `Cc1ccc2[nH]ncc2c1-c1c(N)c(C(N)=O)cc2cccnc12` [Compound 143], the 50% inhibitory concentration (IC50) in assay [1] (Homo sapiens, HCC1806, 4 h) was 1000 to 5000 nM; in assay [2] it was 50 to 500 nM.
`COc1nc2cc(C(N)=O)c(N)c(-c3cccc(O)c3C)c2nc1C` [Compound 172]: the half-inhibitory concentration (IC50) in assay [1] (4 hours) and in assay [2] was 50 to 500 nM each time.
As for `Cc1ccc(O)c(C)c1-c1c(N)c(C(N)=O)nc2ccccc12` (atropisomer, axis not shown; (P)) [Compound 45, (P)-3-amino-4-(3-hydroxy-2,6-dimethylphenyl)quinoline-2-carboxamide], the concentration for half-maximal inhibition (IC50) in assay [1] (4 hours) was not below 5000 nM; in assay [2], 1000 to 5000 nM.
For the compound `Cc1c(CO)cccc1-c1c(N)c(C(N)=O)nc2cccnc12` [Compound 249], the half-inhibitory concentration (IC50) in assay [1] (Homo sapiens, HCC1806, 4 h) is not below 5000 nM; in assay [2], not below 5000 nM.
Consider `Cc1cccc(-c2c(N)c(C(N)=O)cc3cc(Cl)cnc23)c1C` (atropisomer, axis not shown) [Compound 180], for which the IC50 in assay [1] (Homo sapiens, HCC1806, 4 h) lay in the range of 1000 to 5000 nM; in assay [2], 50 to 500 nM.
For `Cc1c(C#N)cncc1-c1c(N)c(C(N)=O)nc2cccnc12` [Compound 317] the same measures were not below 5000 nM and 1000 to 5000 nM.
For `NC(=O)c1cc2nccnc2c(-c2ccc3ocnc3c2)c1N` [Compound 178] the same measures were not below 5000 nM and not below 5000 nM.
Consider `Cc1ccc(O)c(C)c1-c1c(N)c(C(N)=O)nc2c(C)cccc12` (single isomer, unassigned) [Compound 32], for which the IC50 is not below 5000 nM in assay [1] (Homo sapiens, HCC1806, 4 h) and not below 5000 nM in assay [2].
`Cc1c(O)cccc1-c1c(N)c(C(N)=O)cc2cccnc12` (single isomer, unassigned) [Compound 62]: the IC50 in assay [1] (4 hours) was 50 to 500 nM; in assay [2], less than 50 nM.
In the case of `Cc1ccc(O)c(C)c1-c1c(N)c(C(N)=O)cc2nc(C(F)(F)F)cnc12` [Compound 101, 7-Amino-8-(3-hydroxy-2,6-dimethylphenyl)-3-(trifluoromethyl)quinoxaline-6-carboxamide], the IC50 in assay [1] (Homo sapiens, HCC1806, 4 h) lay in the range of 50 to 500 nM; in assay [2], 50 to 500 nM.
Take `Cc1ncncc1-c1c(N)c(C(N)=O)nc2cccnc12` [Compound 232]: the half-inhibitory concentration (IC50) in assay [1] (Homo sapiens, HCC1806, 4 h) was not below 5000 nM; in assay [2], 1000 to 5000 nM.
For the compound `COc1nc2c(-c3cccc(O)c3C)c(N)c(C(N)=O)cc2nc1C` (atropisomer, axis not shown) [Compound 218], the IC50 in assay [1] (4 hours) is 500 to 1000 nM; in assay [2], less than 50 nM.
For the compound `Cc1ccc(O)cc1-c1c(N)c(C(N)=O)cc2nccnc12` (atropisomer, axis not shown; (M)) [Compound 116, (M)-7-Amino-8-(5-hydroxy-2-methylphenyl)quinoxaline-6-carboxamide], the IC50 in assay [1] (4 hours) was 500 to 1000 nM; in assay [2], 50 to 500 nM.
For `COc1ccnc2cc(C(N)=O)c(N)c(-c3cccc(O)c3C)c12` [Compound 333], the IC50 was less than 50 nM in assay [1] (Homo sapiens, HCC1806, 4 h) and 50 to 500 nM in assay [2].
`Cc1ccc(O)c(C)c1-c1c(N)c(C(N)=O)nc2c(F)cccc12` (single isomer, unassigned) [Compound 38, (M)-3-Amino-8-fluoro-4-(3-hydroxy-2,6-dimethylphenyl) quinoline-2-carboxamide]: the IC50 in assay [1] (4 hours) and in assay [2] was 50 to 500 nM each time.
For `NC(=O)c1cc2nccnc2c(-c2c(Cl)ccc3[nH]ncc23)c1N` (atropisomer, axis not shown) [Compound 246], the IC50 in assay [1] (4 hours) lay within 500 to 1000 nM; in assay [2], 50 to 500 nM.
Consider `NC(=O)c1cc2nccnc2c(-c2cncc(O)c2)c1N` [Compound 145], for which the IC50 in assay [1] (Homo sapiens, HCC1806, 4 h) was not below 5000 nM; in assay [2] it was 50 to 500 nM.
Consider `Cc1c(O)cccc1-c1c(N)c(C(N)=O)nc2nccnc12` [Compound 11, 7-Amino-8-(3-hydroxy-2-methylphenyl)pyrido[2,3-b]pyrazine-6-carboxamide], for which the IC50 was 50 to 500 nM in assay [1] (Homo sapiens, HCC1806, 4 h) and less than 50 nM in assay [2].
Turning to `NC(=O)c1nc2cccnc2c(-c2cnccc2C(F)(F)F)c1N` [Compound 259], the half-maximal inhibitory concentration (IC50) in assay [1] (Homo sapiens, HCC1806, 4 h) was not below 5000 nM; in assay [2], 500 to 1000 nM.
Turning to `COc1ccc2nc(C(N)=O)c(N)c(-c3cccc(O)c3C)c2n1` (atropisomer, axis not shown) [Compound 175], the half-maximal inhibitory concentration (IC50) in assay [1] (4 hours) and in assay [2] was not below 5000 nM in each case.
As for `Cc1ccc(O)c(C)c1-c1c(N)c(C(N)=O)nc2ccc(F)cc12` (atropisomer, axis not shown; (M)) [Compound 23, (M)-3-Amino-6-fluoro-4-(3-hydroxy-2,6-dimethylphenyl) quinoline-2-carboxamide], the IC50 in assay [1] (4 hours) fell in the range of 1000 to 5000 nM; in assay [2], 50 to 500 nM.
Turning to `Cc1cnc2c(-c3cccc(O)c3C)c(N)c(C(N)=O)cc2n1` (atropisomer, axis not shown) [Compound 201], the IC50 in assay [1] (4 hours) and in assay [2] was not below 5000 nM each time.
For `Cc1c(O)cccc1-c1cc(C(N)=O)nc2ccccc12` [Compound 13], the IC50 in assay [1] (Homo sapiens, HCC1806, 4 h) is not below 5000 nM; in assay [2] it was 1000 to 5000 nM.
